Laboratory results published in patent publication US20240115718A1, “METHODS OF USING ANTI-CD79B IMMUNOCONJUGATES TO TREAT DIFFUSE LARGE B-CELL LYMPHOMA” (Genentech, Inc., priority 2021, published 2024).

System: patients with relapsed or refractory diffuse large B-cell lymphoma (R/R DLBCL)
Assay: Phase Ib/II study of Pola-R-Len, safety: adverse events graded per NCI CTCAE Version 4.0
Format: in vivo, human
Details: in combination with polatuzumab vedotin 1.8 mg/kg and rituximab 375 mg/m^2; PO Days 1-21 of 28-day cycles
Experimental: Adverse events were assessed based on the National Cancer Institute Common Terminology Criteria for Adverse Events (NCI CTCAE; Version 4.0). Adverse events that are not specifically listed in the NCI CTCAE were graded as follows: • Grade 1: Mild; asymptomatic or mild symptoms; clinical or diagnostic observations only; or intervention not indicated. • Grade 2: Moderate; minimal, local, or non-invasive intervention indicated; or limiting age-appropriate instrumental activities of daily living. • Grade 3: Severe or medically significant, but not immediately life threatening; hospitalization or prolongation of hospitalization indicated; disabling; or limiting self-care activities of daily living. • Grade 4: Life-threatening consequences or urgent intervention indicated. • Grade 5: Death related to adverse event.
The following populations were defined: • The primary safety and efficacy populations included patients who received at least one dose of any component of the treatment combination. • The intent-to-treat population included patients enrolled in the study.

SMILES: Nc1cccc2c1CN(C1CCC(=O)NC1=O)C2=O (stereo not shown) [lenalidomide]
- recommended Phase II dose (RP2D): 20 mg
